Assay results from patent US20240207258A1, “HETEROCYCLIC PDK1 INHIBITORS FOR USE TO TREAT CANCER” (Viracta Therapeutics, Inc., priority 2015, published 2024).

Assays:
pPDK1 = experiment: Western blot, PDK1 phosphorylation in KG-1 cells; assay type: cell-based; conditions: Homo sapiens; KG-1, 100 nM; read-out: inhibition of pPDK1 levels
Procedure: (§1) For phosphoprotein analyses, cells were seeded into 10 cm petri dishes (10×10^6 cells/dish) in media supplemented with 10% FBS and penicillin/streptomycin. After cells recovered for 1 hr at 37° C., compounds were added in DMSO (0.1% final) and incubated for 4 or 24 hr at 37° C. Cells were then harvested by centrifugation and washed with cold PBS. Cell pellets were resuspended in cell extraction buffer (Invitrogen) supplemented with 2×Halt™ protease and phosphatase inhibitor cocktail (Thermo Scientific), 2 mM sodium orthovanadate, 10 mM EDTA and 4 mM PMSF. Samples were lysed by sonication and incubated on ice for 30 min. Cell debris was removed by centrifugation and protein concentrations were determined using the BCA Protein Assay Kit (Pierce). The clarified lysate was diluted in LDS sample buffer with reducing agent (Life Technologies). After heating to 70° C. samples were cooled and loaded onto 4-12% Bis-Tris gels (Life Technologies) at 50 μg/well. Gels were run at 110 V and proteins were transferred to a PVDF membrane. Membranes were blocked in TBS blocking buffer (Li-Cor Biosciences) for 1 hr. Primary antibodies (Cell Signaling, Sant Cruz Biotechnology) were added (1:1,000 dilution) in blocking buffer with 0.1% Tween-20 and 1:20,000 dilution of β-actin antibody and incubated for 14 hr at 4° C. […] Bands were quantitated using ImageJ.

pRSK2 = experiment: Western blot, RSK2 phosphorylation in KG-1 cells; assay type: cell-based; conditions: Homo sapiens; KG-1, 100 nM; read-out: inhibition of pRSK2 levels
Procedure: as §1

P-PDK1 [1] = experiment: Western blot, PDK1 phosphorylation in C1498 cells; assay type: cell-based, murine; conditions: C1498, 30-100 nM range
Procedure: as §1, with “After heating to 70° C. samples were cooled and loaded onto 4-12% Bis-Tris gels (Life Technologies) at 50 μg/well.” left out

P-RSK2 [2] = experiment: Western blot, RSK2 phosphorylation in A20 cells; assay type: cell-based, murine; conditions: Mus musculus; A20, 300 nM
Procedure: as §1

P-RSK2 [3] = experiment: Western blot, RSK2 phosphorylation in MV4-11 cells; assay type: cell-based, human
Procedure: (§2) For phosphoprotein analyses, cells were seeded into 10 cm petri dishes (10×10^6 cells/dish) in media supplemented with 10% FBS and penicillin/streptomycin. After cells recovered for 1 hr at 37° C., compounds were added in DMSO (0.1% final) and incubated for 4 or 24 hr at 37° C. Cells were then harvested by centrifugation and washed with cold PBS. Cell pellets were resuspended in cell extraction buffer (Invitrogen) supplemented with 2×Halt™ protease and phosphatase inhibitor cocktail (Thermo Scientific), 2 mM sodium orthovanadate, 10 mM EDTA and 4 mM PMSF. Samples were lysed by sonication and incubated on ice for 30 min. Cell debris was removed by centrifugation and protein concentrations were determined using the BCA Protein Assay Kit (Pierce). The clarified lysate was diluted in LDS sample buffer with reducing agent (Life Technologies). […] Gels were run at 110 V and proteins were transferred to a PVDF membrane. Membranes were blocked in TBS blocking buffer (Li-Cor Biosciences) for 1 hr. Primary antibodies (Cell Signaling, Sant Cruz Biotechnology) were added (1:1,000 dilution) in blocking buffer with 0.1% Tween-20 and 1:20,000 dilution of β-actin antibody and incubated for 14 hr at 4° C. Blots were washed in TBS-T. Label-conjugated goat anti-rabbit secondary antibody (IRdye® 800CW; Li-Cor Biosciences) was added in blocking buffer with 0.1% Tween-20 and 0.02% SDS and incubated for 1 hr. After washing in TBS-T followed by TBS, membranes were scanned on an Odyssey imaging system (Li-Cor Biosciences). Bands were quantitated using ImageJ.

P-PDK1 [4] = experiment: Western blot, PDK1 phosphorylation in A20 cells; assay type: cell-based, murine
Procedure: as §1, with “After heating to 70° C. samples were cooled and loaded onto 4-12% Bis-Tris gels (Life Technologies) at 50 μg/well.” left out

P-AKT = experiment: Western blot, AKT phosphorylation in A20 cells; assay type: cell-based, murine
Procedure: as §2

P-RSK2 [5] = experiment: Western blot, RSK2 phosphorylation in C1498 cells; assay type: cell-based, murine; conditions: C1498, 30-100 nM range
Procedure: as §1, with “After heating to 70° C. samples were cooled and loaded onto 4-12% Bis-Tris gels (Life Technologies) at 50 μg/well.” left out

MV4-11 cells = experiment: Induction of apoptosis (Annexin V / propidium iodide flow cytometry); assay type: cell-based, human
Procedure: Cells were seeded in a six-well tissue culture plate in 3 mL complete growth medium (3×10^5 cells/well) and allowed to equilibrate for 1 hr at 37° C. in a humidified incubator with 5% CO2. DMSO (control), test compound, or doxorubicin was added to the wells (0.1% final DMSO concentration). Cells were returned to the incubator for 24 hrs. On the day of analysis 1×10^5 cells were labeled according to manufacturer's instructions and analyzed by flow cytometry (BD FACSCaalibur™, GH) to determine the percent of apoptotic cells (annexin V positive, AV+) and/or apoptotic dead cells (AV+ and propidium iodide positive (PI+)).

P-PDK1 [6] = experiment: Western blot, PDK1 phosphorylation in MV4-11 cells; assay type: cell-based, human
Procedure: as §2

[7] = system: PDK1 and RSK2 phosphorylation; experiment: Western blot pathway modulation, summary over cell lines; assay type: cell-based
Procedure: as §1, with “After heating to 70° C. samples were cooled and loaded onto 4-12% Bis-Tris gels (Life Technologies) at 50 μg/well.” left out

[8] = Homo sapiens, MV4-11, FIG. 6C, 30 nM, 4 hrs

Structure (SMILES) | inhibition at 0.1 µM (pPDK1) [%] | inhibition at 0.1 µM (pRSK2) [%] | P-PDK1 inhibition (P-PDK1 [1]) [%] | inhibition at 0.3 µM (P-RSK2 [2]) [%] | inhibition at 0.03 µM (P-RSK2 [3]; [8]) [%] | inhibition at 0.1 µM (P-RSK2 [3]; Homo sapiens, MV4-11, 100 nM) [%] | inhibition of RSK2 phosphorylation (P-RSK2 [3]; MV4-11, 30 nM, various times) | P-PDK inhibition plateau (P-PDK1 [4]) [%] | P-AKT levels (P-AKT) | P-RSK2 inhibition (P-RSK2 [5]) [%] | apoptosis at 100 nM (MV4-11 cells; 100 nM) | apoptosis after 24 hours (MV4-11 cells; 24 hours) | inhibition at 0.03 µM (P-PDK1 [6]; [8]) [%] | inhibition at 0.1 µM (P-PDK1 [6]; Homo sapiens, MV4-11, 100 nM) [%] | fold decrease in PDK1 phosphorylation between 4 hr and 24 hr exposure (P-PDK1 [6]; MV4-11, 30 nM) [fold] | fold more inhibition of PDK1 phosphorylation after 24 hours than 4 hours [7] | fold more potent than GSK-2334470 in inhibiting phosphorylation of both PDK1 and RSK2 ([7]; MV4-11, FIG. 6) [fold]
C[C@H](NC(=O)c1nc(C#N)cnc1NCc1ccc(-c2cnc3[nH]nc(N)c3n2)cc1)c1ccc(F)c(F)c1 [Compound 1, 3-[4-(3-Amino-1H-pyrazolo[3,4-b]pyrazin-5-yl)-benzylamino]-6-cyano-pyrazine-2-carboxylic acid [1-(3,4-difluoro-phenyl)-ethyl]-amide] | > 80 | > 80 | – | – | – | – | – | – | – | – | – | – | – | – | – | – | –
CNc1n[nH]c2ncc(-c3ccc(CNc4ncc(C#N)nc4C(=O)N[C@@H](C)c4ccc(F)c(F)c4)cc3)cc12 [Compound 2, 6-Cyano-3-[4-(3-methylamino-1H-pyrazolo[3,4-b]pyridin-5-yl)-benzylamino]-pyrazine-2-carboxylic acid [1-(3,4-difluoro-phenyl)-ethyl]-amide] | – | – | ~80 | > 90 | 90 | > 95 | potent and time-independent | 70 | sensitive | > 90 | induces apoptosis | substantial apoptosis | 40 | 90 | 5 | 2-5 fold | 10
